Measured values as given in patent US20250101062A1, “ANTIMICROBIAL PEPTIDES” (Board of Regents of the University of Nebraska, priority 2023, published 2025).
Values after ≈ are worked out from the molar mass of the structure shown. Where two headings read alike, the source gives them in different places. Where a SMILES comes first, the peptide text is derived from it.

Tests used:
human red blood cells = assay: Hemolytic assay; type: cell-based
Experimental: The hemolytic effects of peptides were evaluated using a method with minor modifications (Lakshmaiah Narayana, et al. (2021) ACS Infect. Dis., 7:1795-1808). Human red blood cells (hRBCs, UNMC Blood Bank) were washed (3×) with blood bank saline (isotonic solution 0.90% w/v, Fisher). Cells were diluted to 2% using the saline solution, and aliquots of 90 μL were added to a 96-well polystyrene microplate containing 10 μL of serially diluted peptide solutions. After incubation at 37° C. for 1 hour, plates were centrifuged at 500 g for 5 minutes. Aliquots of the supernatant were transferred to a 96-well microplate. The amount of hemoglobin released was measured at 545 nm by using a ChroMate™ microplate reader. […] HC50 is defined as the concentration of the peptide that caused 50% lysis.
The hemolytic effects of peptides were evaluated (Narayana, et al. (2020) Proc. Natl. Acad. Sci., 117(32):19446-9454). In brief, human red blood cells (UNMC Blood Bank) were washed (3×) and diluted to 2% using the saline solution. Aliquots of 90 μL were mixed with 10 μL of serially diluted peptide solutions. After incubation at 37° C. for 1 hour, plates were centrifuged at 500 g for 5 minutes and aliquots of the supernatant were transferred to a new 96-well microplate to measure the amount of hemoglobin released at 545 nm (relative to 1% Triton® X-100) using a ChroMate® Microplate Reader.

S. aureus USA300 LAC = assay: microbe, parasite or virus in culture; type: cell-based, Staphylococcus aureus; conditions: USA300
Summary of the method: (§1)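 Broth microdilution with twofold peptide dilutions, using exponential-phase bacteria at about 10^5 CFU/mL in MHB, incubated overnight at 37 °C and read at OD600. MIC, reported as a range, is the peptide concentration with no growth. Some tests used diluted MHB/TSB/LB, adjusted pH, or added NaCl or human serum.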

K. pneumoniae E406-17 = type: cell-based, Klebsiella pneumoniae
Experimental: The following resistant bacterial clinical strains were used in this study: S. aureus USA300 LAC, S. epidermidis 1457, E. coli E423-17, P. aeruginosa E411-17, K. pneumoniae E406-17, and A. baumannii B28-16. While the S. aureus USA300 strain is methicillin-resistant, most of the Gram-negative bacteria contain extended-spectrum beta-lactamase and are resistant to beta-lactam antibiotics. Peptide activity against bacteria was tested using an established lab protocol (Mishra, et al. (2017) Acta Biomater., 49:316-328). In brief, a peptide concentration gradient with twofold dilution was made in the 96-well polystyrene microplate at 10 μL per well. Bacteria were grown to the exponential phase (i.e., optical density at 600 nm≈0.5), diluted to ˜10^5 CFU/mL in different percentages of MHB, TSB, or LB, and partitioned into the 96-well microplate at 90 μL per well. […] They were diluted with autoclaved distilled water to obtain different percentages. The microplates were incubated at 37° C. overnight and read on a ChroMate™ 4300 microplate reader at 600 nm (GMI, Ramsey, MN). The peptide concentration in the wells without bacterial growth is the MIC. As is the convention, MIC values were represented as ranges.
(§2) Peptide activity against bacteria were tested using the CLSI standard procedure with minor modifications (Clinical and Laboratory Standards Institute (2018) Performance standards for antimicrobial susceptibility testing, 9th ed.; Mishra, et al. (2019) Proc. Natl. Acad. Sci., 116(27):13517-13522). In brief, a peptide concentration gradient with twofold dilution was made in the 96-well polystyrene microplate at 10 μL per well. Bacteria were grown to the exponential phase (i.e., optical density at 600 nm≈0.5), diluted to ˜10^5 CFU/mL in MHB, and partitioned into the 96-well microplate at 90 μL per well. The microplates were incubated at 37° C. overnight and read on a ChroMate® 4300 Microplate Reader at 600 nm (GMI, Ramsey, MN). The peptide concentration in the wells without bacterial growth is the minimal inhibitory concentration (MIC). As the convention, MIC values were represented as ranges.

E. coli E416-17 = type: cell-based, Escherichia coli
Experimental: as §2

S. epidermidis 1457 = assay: microbe, parasite or virus in culture; type: cell-based, Staphylococcus epidermidis
Summary of the method: (§3)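 Peptides twofold serially diluted against exponential-phase resistant clinical isolates at ~10^5 CFU/mL in MHB (also diluted MHB, TSB or LB in one protocol), CLSI-based broth microdilution. Incubated overnight at 37° C., OD 600 nm read; MIC taken as lowest concentration without growth, reported as ranges.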

A. baumannii B28-16 = type: cell-based, Acinetobacter baumannii; conditions: B28-16
Summary of the method: as §3

P. aeruginosa E411-17 = assay: microbe, parasite or virus in culture; type: cell-based, Pseudomonas aeruginosa; conditions: E411-17
Summary of the method: as §1

| Compound | HC10-based therapeutic index (HC10/MIC) (human red blood cells) | Hemolysis (HC10), 10% hemolytic concentration (human red blood cells) | Hemolysis (HC50), 50% hemolytic concentration (human red blood cells) | Minimal inhibitory concentration (MIC) S. aureus USA300 (S. aureus USA300 LAC) | Minimal inhibitory concentration (MIC) K. pneumoniae E406-17 (K. pneumoniae E406-17) | Minimal inhibitory concentration (MIC) E. coli E416-17 (E. coli E416-17) | Minimal inhibitory concentration (MIC) S. epidermidis 1457 (S. epidermidis 1457) | Minimal inhibitory concentration (MIC) A. baumannii B28-16 (A. baumannii B28-16) | Minimal inhibitory concentration (MIC) P. aeruginosa E411-17 (P. aeruginosa E411-17) | Hemolysis (HC10), 10% hemolytic concentration (human red blood cells; red cells of human) |
| --- | --- | --- | --- | --- | --- | --- | --- | --- | --- | --- |
| CC(C)C[C@H](N)C(=O)N[C@@H](Cc1c[nH]c2ccccc12)C(=O)NCC(=O)N[C@@H](CCCNC(=N)N)C(=O)N[C@@H](Cc1ccccc1)C(=O)N[C@@H](Cc1ccccc1)C(=O)N[C@@H](CCCNC(=N)N)C(=O)N[C@@H](CCCCN)C(=O)N[C@@H](Cc1ccc(-c2ccccc2)cc1)C(=O)N[C@@H](CCCCN)C(N)=O [Bip-LL-10+] (HELM PEPTIDE1{L.W.G.R.F.F.R.K.[O=C([C@H](Cc1ccc(-c2ccccc2)cc1)N[*:1])[*:2]].K.[am]}$$$$V2.0) | 25 | 100 µM | > 200 µM | 2 to 4 µM | >32 µM | 4 µM (≈ 5.84 µg/mL) | 4 µM (≈ 5.84 µg/mL) | 8 µM (≈ 11.7 µg/mL) | 4 µM (≈ 5.84 µg/mL) |  |
| N=C(N)NCCC[C@H](NC(=O)[C@@H](N)CCCCN)C(=O)N[C@@H](Cc1c[nH]c2ccccc12)C(=O)N[C@@H](Cc1ccc(-c2ccccc2)cc1)C(=O)N[C@@H](CCC(N)=O)C(=O)N[C@@H](Cc1c[nH]c2ccccc12)C(=O)N[C@@H](Cc1ccc(-c2ccccc2)cc1)C(=O)N[C@@H](CCCCN)C(N)=O [Bip-KR-8+] (HELM PEPTIDE1{K.R.W.[O=C([C@H](Cc1ccc(-c2ccccc2)cc1)N[*:1])[*:2]].Q.W.[O=C([C@H](Cc1ccc(-c2ccccc2)cc1)N[*:1])[*:2]].K.[am]}$$$$V2.0) | ~1 | 15 µM | > 200 µM | 4 µM (≈ 5.51 µg/mL) | >32 µM | 16 µM (≈ 22 µg/mL) | 4 µM (≈ 5.51 µg/mL) | 32 µM (≈ 44.1 µg/mL) | 16 to 32 µM |  |
| CC(C)C[C@H](NC(=O)[C@H](Cc1ccccc1)NC(=O)[C@H](CCCNC(=N)N)NC(=O)[C@H](CCCCN)NC(=O)[C@H](Cc1ccc(-c2ccccc2)cc1)NC(=O)[C@@H](N)CCCNC(=N)N)C(=O)N[C@@H](CCCNC(=N)N)C(=O)N[C@@H](CC(N)=O)C(=O)N[C@@H](Cc1ccc(-c2ccccc2)cc1)C(=O)N[C@H](C(N)=O)C(C)C [Bip-RIK-10+] (HELM PEPTIDE1{R.[O=C([C@H](Cc1ccc(-c2ccccc2)cc1)N[*:1])[*:2]].K.R.F.L.R.N.[O=C([C@H](Cc1ccc(-c2ccccc2)cc1)N[*:1])[*:2]].V.[am]}$$$$V2.0) | <4 |  | ~30 µM | 1 µM (≈ 1.53 µg/mL) | 2 to 4 µM | 2 µM (≈ 3.07 µg/mL) | 2 µM (≈ 3.07 µg/mL) | 2 to 4 µM | 2 µM (≈ 3.07 µg/mL) | < 8 µM |
